Data from patent publication US9695155B2, “Herbicidal substituted pyrimidinyloxy benzene compounds” (E. I. DU PONT DE NEMOURS AND COMPANY, priority 2013, dated 2017).

What was measured:
kochia = test: Test D postemergence; type: in vivo, Kochia scoparia; conditions: Bassia scoparia, post-emergence
How it was run: (§1)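 After treatment, visual injury versus untreated plants, 0–100 scale, assessed at 7 to 21 days. Applications were made preemergence to silt loam-sown seed and postemergence to seedlings 2–18 cm high in potting medium.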

field poppy = test: Test D postemergence; type: in vivo, Papaver rhoeas; conditions: Papaver rhoeas, post-emergence
How it was run: as §1

speedwell = test: Test D postemergence; type: in vivo, Veronica persica; conditions: Veronica persica, post-emergence
How it was run: as §1

chamomile = test: Test D postemergence; type: in vivo, Matricaria inodora; conditions: Tripleurospermum inodorum, post-emergence
How it was run: as §1

deadnettle = test: Test D postemergence; type: in vivo, Lamium amplexicaule; conditions: Lamium amplexicaule, post-emergence
How it was run: as §1

field bindweed = test: Test E postemergence; type: in vivo, Convolvulus arvensis; conditions: Convolvulus arvensis, post-emergence, read-out: Plant response rating, Field Bindweed
Source text: Seeds of plant species selected from corn (Zea mays), soybean (Glycine max), velvetleaf (Abutilon theophrasti), lambsquarters (Chenopodium album), wild poinsettia (Euphorbia heterophylla), palmer pigweed (Amaranthus palmeri), waterhemp (common waterhemp, Amaranthus rudis), surinam grass (Brachiaria decumbens), large (Lg) crabgrass (Digitaria sanguinalis), Brazilian crabgrass (Digitaria horizontalis), fall panicum (Panicum dichotomiflorum), giant foxtail (Setaria faberii), green foxtail (Setaria viridis), goosegrass (Eleusine indica), johnsongrass (Sorghum halepense), ragweed (common ragweed, Ambrosia elatior), barnyardgrass (Echinochloa crus-galli), sandbur (southern sandbur, Cenchrus echinatus), arrowleaf sida (Sida rhombifolia), Italian ryegrass (Lolium multiflorum), dayflower (Virginia (VA) dayflower, Commelina virginica), field bindweed (Convolvulus arvensis), morningglory (Ipomoea coccinea), nightshade (eastern black nightshade, Solanum ptycanthum), kochia (Kochia scoparia), yellow nutsedge (Cyperus esculentus), cocklebur (common cocklebur, Xanthium strumarium), smartweed (ladysthumb smartweed, and hairy beggarticks (Bidens pilosa), were planted into a silt loam soil and treated preemergence with test chemicals formulated in a non-phytotoxic solvent mixture which included a surfactant.
At the same time, plants from these crop and weed species and also horseweed (Canada horseweed, Conyza canadensis), waterhemp_RES1, (ALS & Triazine resistant common waterhemp, Amaranthus rudis), and waterhemp_RES2, (ALS & HPPD resistant common waterhemp, Amaranthus rudis) were planted in pots containing Redi-Earth® planting medium (Scotts Company, 14111 Scottslawn Road, Marysville, Ohio 43041) comprising spaghnum peat moss, vermiculite, wetting agent and starter nutrients were treated with postemergence applications of test chemicals formulated in the same manner. Plants ranged in height from 2 to 18 cm for postemergence treatments (1- to 4-leaf stage). Treated plants and controls were maintained in a greenhouse for 14 to 21 days, after which time all species were compared to controls and visually evaluated. Plant response ratings, summarized in Table E, are based on a scale of 0 to 100 where 0 is no effect and 100 is complete control. A dash (-) response means no test result.

green foxtail = test: Test D preemergence; type: in vivo, Setaria viridis; conditions: Setaria viridis, pre-emergence
How it was run: as §1

field violet = test: Test D postemergence; type: in vivo, Viola arvensis; conditions: Viola arvensis, post-emergence
How it was run: as §1

wild mustard = test: Test D postemergence; type: in vivo, Sinapis arvensis; conditions: Brassica, post-emergence
How it was run: as §1

bromegrass, downy = test: Test D postemergence; type: in vivo, Bromus tectorum; conditions: Bromus tectorum, post-emergence, Postemergence, scale 0 to 100 (0 no effect, 100 complete control), read-out: Plant response rating, Bromegrass, Downy
How it was run: as §1

bluegrass = test: Test D preemergence; type: in vivo, Poa annua; conditions: Poa annua, pre-emergence
How it was run: as §1

oilseed rape = test: Test D preemergence; type: in vivo, Brassica napus; conditions: Brassica napus, pre-emergence
How it was run: as §1

Clc1cnc(Oc2ccccc2-n2cc(Br)cn2)nc1 [Compound 7, 2-[2-(4-bromo-1H-pyrazol-1-yl)phenoxy]-5-chloropyrimidine]
60%: pest or weed control at 250 g/ha (field poppy; 250 g ai/ha, scale 0 to 100 (0 no effect, 100 complete control), read-out: Plant response rating, Field Poppy)
0%: pest or weed control at 16 g/ha (chamomile; 16 g ai/ha, scale 0-100, read-out: Plant response rating, Chamomile) | pest or weed control at 31 g/ha (chamomile; 31 g ai/ha, scale 0 to 100 (0 no effect, 100 complete control), read-out: Plant response rating, Chamomile) | pest or weed control at 62 g/ha (chamomile; 62 g ai/ha, scale 0 to 100 (0 no effect, 100 complete control), read-out: Plant response rating, Chamomile) | pest or weed control at 125 g/ha (chamomile; 125 g ai/ha, scale 0 to 100 (0 no effect, 100 complete control), read-out: Plant response rating, Chamomile) | pest or weed control at 250 g/ha (chamomile; 250 g ai/ha, scale 0 to 100 (0 no effect, 100 complete control), read-out: Plant response rating, Chamomile) | pest or weed control at 16 g/ha (green foxtail; 16 g ai/ha, scale 0 (no effect) to 100 (complete control), read-out: Plant response rating, Foxtail, Green) | pest or weed control at 31 g/ha (green foxtail; 31 g ai/ha, scale 0-100, read-out: Plant response rating, Foxtail, Green) | pest or weed control at 62 g/ha (green foxtail; 62 g ai/ha, scale 0-100, read-out: Plant response rating, Foxtail, Green) | pest or weed control at 125 g/ha (green foxtail; 125 g ai/ha, scale 0-100, read-out: Plant response rating, Foxtail, Green) | pest or weed control at 16 g/ha (bromegrass, downy; 16 g ai/ha) | pest or weed control at 31 g/ha (bromegrass, downy; 31 g ai/ha) | pest or weed control at 62 g/ha (bromegrass, downy; 62 g ai/ha) | pest or weed control at 16 g/ha (bluegrass; 16 g ai/ha, scale 0 (no effect) to 100 (complete control), read-out: Plant response rating, Bluegrass) | pest or weed control at 31 g/ha (bluegrass; 31 g ai/ha, scale 0-100, read-out: Plant response rating, Bluegrass) | pest or weed control at 62 g/ha (bluegrass; 62 g ai/ha, scale 0-100, read-out: Plant response rating, Bluegrass) | plant injury at 16 g/ha (oilseed rape; 16 g ai/ha, scale 0 (no effect) to 100 (complete control), read-out: Plant response rating, Oilseed Rape)
25%: plant injury at 62 g/ha (oilseed rape; 62 g ai/ha, scale 0-100, read-out: Plant response rating, Oilseed Rape)
70%: pest or weed control at 31 g/ha (kochia; 31 g ai/ha, scale 0 to 100 (0 no effect, 100 complete control), read-out: Plant response rating, Kochia) | pest or weed control at 31 g/ha (speedwell; 31 g ai/ha, scale 0 to 100 (0 no effect, 100 complete control), read-out: Plant response rating, Speedwell) | pest or weed control at 125 g/ha (field bindweed; Postemergence, 125 g ai/ha, scale 0 to 100) | pest or weed control at 62 g/ha (field violet; 62 g ai/ha, scale 0 to 100 (0 no effect, 100 complete control), read-out: Plant response rating, Field Violet) | pest or weed control at 125 g/ha (field violet; 125 g ai/ha, scale 0 to 100 (0 no effect, 100 complete control), read-out: Plant response rating, Field Violet) | pest or weed control at 250 g/ha (field violet; 250 g ai/ha, scale 0 to 100 (0 no effect, 100 complete control), read-out: Plant response rating, Field Violet)
30%: pest or weed control at 16 g/ha (kochia; 16 g ai/ha, scale 0-100, read-out: Plant response rating, Kochia) | pest or weed control at 16 g/ha (speedwell; 16 g ai/ha, scale 0-100, read-out: Plant response rating, Speedwell) | pest or weed control at 125 g/ha (deadnettle; 125 g ai/ha, scale 0 to 100 (0 no effect, 100 complete control), read-out: Plant response rating, Deadnettle) | pest or weed control at 31 g/ha (field bindweed; Postemergence, 31 g ai/ha, scale 0 to 100) | pest or weed control at 125 g/ha (bluegrass; 125 g ai/ha, scale 0-100, read-out: Plant response rating, Bluegrass)
50%: pest or weed control at 62 g/ha (field poppy; 62 g ai/ha, scale 0 to 100 (0 no effect, 100 complete control), read-out: Plant response rating, Field Poppy) | pest or weed control at 125 g/ha (field poppy; 125 g ai/ha, scale 0 to 100 (0 no effect, 100 complete control), read-out: Plant response rating, Field Poppy) | pest or weed control at 62 g/ha (field bindweed; Postemergence, 62 g ai/ha, scale 0 to 100) | pest or weed control at 31 g/ha (wild mustard; 31 g ai/ha, scale 0 to 100 (0 no effect, 100 complete control), read-out: Plant response rating, Mustard, Wild)
10%: pest or weed control at 16 g/ha (field poppy; 16 g ai/ha, scale 0-100, read-out: Plant response rating, Field Poppy) | pest or weed control at 16 g/ha (deadnettle; 16 g ai/ha, scale 0-100, read-out: Plant response rating, Deadnettle) | pest or weed control at 31 g/ha (deadnettle; 31 g ai/ha, scale 0 to 100 (0 no effect, 100 complete control), read-out: Plant response rating, Deadnettle) | pest or weed control at 16 g/ha (field violet; 16 g ai/ha, scale 0-100, read-out: Plant response rating, Field Violet) | plant injury at 31 g/ha (oilseed rape; 31 g ai/ha, scale 0-100, read-out: Plant response rating, Oilseed Rape)
95%: pest or weed control at 125 g/ha (wild mustard; 125 g ai/ha, scale 0 to 100 (0 no effect, 100 complete control), read-out: Plant response rating, Mustard, Wild)
15%: pest or weed control at 8 g/ha (field bindweed; postemergence, 8 g ai/ha, scale 0 to 100, 0 no effect, 100 complete control)
20%: pest or weed control at 31 g/ha (field poppy; 31 g ai/ha, scale 0 to 100 (0 no effect, 100 complete control), read-out: Plant response rating, Field Poppy) | pest or weed control at 62 g/ha (deadnettle; 62 g ai/ha, scale 0 to 100 (0 no effect, 100 complete control), read-out: Plant response rating, Deadnettle) | pest or weed control at 16 g/ha (field bindweed; postemergence, 16 g ai/ha, scale 0 to 100, 0 no effect, 100 complete control) | pest or weed control at 250 g/ha (green foxtail; 250 g ai/ha, scale 0-100, read-out: Plant response rating, Foxtail, Green) | pest or weed control at 31 g/ha (field violet; 31 g ai/ha, scale 0 to 100 (0 no effect, 100 complete control), read-out: Plant response rating, Field Violet) | pest or weed control at 16 g/ha (wild mustard; 16 g ai/ha, scale 0-100, read-out: Plant response rating, Mustard, Wild)
100%: pest or weed control at 62 g/ha (kochia; 62 g ai/ha, scale 0 to 100 (0 no effect, 100 complete control), read-out: Plant response rating, Kochia) | pest or weed control at 125 g/ha (kochia; 125 g ai/ha, scale 0 to 100 (0 no effect, 100 complete control), read-out: Plant response rating, Kochia) | pest or weed control at 250 g/ha (kochia; 250 g ai/ha, scale 0 to 100 (0 no effect, 100 complete control), read-out: Plant response rating, Kochia) | pest or weed control at 62 g/ha (speedwell; 62 g ai/ha, scale 0 to 100 (0 no effect, 100 complete control), read-out: Plant response rating, Speedwell) | pest or weed control at 125 g/ha (speedwell; 125 g ai/ha, scale 0 to 100 (0 no effect, 100 complete control), read-out: Plant response rating, Speedwell) | pest or weed control at 250 g/ha (speedwell; 250 g ai/ha, scale 0 to 100 (0 no effect, 100 complete control), read-out: Plant response rating, Speedwell) | plant injury at 125 g/ha (oilseed rape; 125 g ai/ha, scale 0-100, read-out: Plant response rating, Oilseed Rape) | plant injury at 250 g/ha (oilseed rape; 250 g ai/ha, scale 0-100, read-out: Plant response rating, Oilseed Rape)
98%: pest or weed control at 250 g/ha (wild mustard; 250 g ai/ha, scale 0 to 100 (0 no effect, 100 complete control), read-out: Plant response rating, Mustard, Wild)
5%: pest or weed control at 125 g/ha (bromegrass, downy; 125 g ai/ha) | pest or weed control at 250 g/ha (bromegrass, downy; 250 g ai/ha)
75%: pest or weed control at 62 g/ha (wild mustard; 62 g ai/ha, scale 0 to 100 (0 no effect, 100 complete control), read-out: Plant response rating, Mustard, Wild)
40%: pest or weed control at 250 g/ha (deadnettle; 250 g ai/ha, scale 0 to 100 (0 no effect, 100 complete control), read-out: Plant response rating, Deadnettle) | pest or weed control at 250 g/ha (bluegrass; 250 g ai/ha, scale 0-100, read-out: Plant response rating, Bluegrass)
